The source of these data is patent US20140303109A1 (priority 2010, published 2014).

One data set deals with T1, cellular 26S proteasome (Homo sapiens, UniProt P20618+P28074).
T1 construct: host or cells: HCT 116 human colon cancer cells
Nature of the data set: Proteasomal chymotrypsin-like activity in treated HCT 116 cells. Format: cell-based. To be noted: 24 h. The procedure: HCT 116 human colon cancer cells; human pancreatic carcinoma cell lines BxPC-3 and MIA PaCa-2, were purchased from American Type Culture Collection (Manassas, Va.) and grown in Dulbecco modified Eagle's medium supplemented with 10% fetal bovine serum (FBS), 100 units/ml of penicillin, and 100 μg/ml of streptomycin. Cells were maintained at 37° C. and 5% CO2. FBS was obtained from Tissue Culture Biologicals (Tulare, Calif.). Penicillin and streptomycin were purchased from Invitrogen Co. (Carlsbad, Calif.).
As a control, untreated cells were maintained in the solvent ethanol (E).

Data set [1] relates to human colon cancer HCT 116 cells. Nature of the data set: MTT assay, HCT 116 cell growth. It is filed as cell-based. To be noted: read-out: inhibition on cell proliferation. As for the experimental part:
The concentrations were 10 μM, 20 μM, and 30 μM. After aspiration of growth medium, (3-(4,5-Dimethylthiazol-2-yl)-2,5-diphenyltetrazolium bromide (MTT; 1 mg/ml) was added to the cell cultures, followed by incubation for 3 hours at 37° C. After the cells were crystallized, the MTT was removed and dimethylsulfoxide (DMSO) was added to dissolve the metabolized MTT product. The absorbance was then measured on a Wallac Victor^3 1420 Multi-label counter at 540 nm.
On the technique in general: Formazan colour is commonly taken as a measure of viable cells.

In data set [2] the test system is BxPC-3 pancreatic cancer cells. Put plainly: Cell Apoptosis ELISA (histone/DNA fragments), BxPC-3. To be noted: 72 h, various concentrations. It is filed as cell-based, human. An excerpt: A Cell Apoptosis ELISA Detection Kit (Roche, Palo Alto, Calif.) was used to determine whether the inhibition of cell growth could be due, at least partially, to the induction of apoptosis, in the BxPC-3 pancreatic cancer cells. […] After the treatment, the cytoplasmic histone/DNA fragments were extracted and bound to immobilized anti-histone antibody. Subsequently, peroxidase-conjugated anti-DNA antibody was used for the detection of immobilized histone/DNA fragments.
A general note: In an ELISA, binding on a coated surface is turned into a signal by an enzyme label.

In data set [3] the test system is PGE2. Nature of the data set: PGE2 immunoassay of conditioned medium, BxPC-3 and MIA PaCa-2. It is filed as cell-based, human. Particulars: 24 h. As for the experimental part: The conditioned medium was collected and analyzed for PGE2 concentration, according to the manufacture's protocol, using a PGE2 high sensitivity immunoassay kit purchased from R & D Systems, Minneapolis, Minn. The optical density was measured at 450 nm and the concentration of PGE2 was calculated from the standard curve.

Data set [4] is described as follows: Serum pharmacokinetics after single intragastric dose. It is filed as in vivo, mice. As for the experimental part:
(§1) The mice were randomly divided into two groups of 18 mice apiece. […] Blood and tissue samples were harvested before initiation of treatment (0 hr) and at 1, 2, 4, 6, 8, 12, 16, and 24 hrs following the intragastric administration. At each time point, two mice were euthanized and ˜200 μL blood was collected by cardiac puncture, and tissues (liver, lung, kidney, heart, pancreas, and colon) were harvested, washed free of blood with PBS, blotted dry, weighed, and stored at −80° C. until analysis. The collected blood samples were allowed to clot, centrifuged, and then the serum was separated and stored at −80° C. until analysis.
(§2) The tissue samples were homogenized in 5 volumes of ice-cold normal saline. Aliquots of serum or tissue homogenate were spiked with ethyl acetate (containing 50 ng/ml zilueton as an internal standard) as follows: 100 μL serum/500 μL ethyl acetate and 500 μL tissue homogenate/1 ml ethyl acetate. The mixtures were vortex-mixed and centrifuged at 14,000 rpm for 5 minutes. The top layer was separated and dried under a stream of nitrogen in a water bath at about 50° C. The residue was reconstituted in 100 μL of methanol/water containing 0.45% formic acid (70:30 v/v) and then centrifuged again.
(§3) The supernatant (100 μL) was injected into the HPLC equipment, and separated on a Waters Xterra MS column (2.1×50 mm, […] i.d.) With a mobile phase consisting of methanol/water containing 0.45% formic acid (70:30 v/v) at a flow rate of 0.2 ml/min. The column effluent was monitored using a Waters Quattro Micro™ triple quadrapole mass-spectrometric detector equipped with an electrospray ionization source. (Waters Corporation, Milford, Mass.). […] The internal standard zilueton was monitored in the positive mode at the transition of m/z, 237.1→160.8. […] The within-day and between-day precision and accuracies of the assay was <15%.
(§4) Serum pharmacokinetic parameters were estimated using non-compartmental analysis with WinNonlin software version 4.2 (Pharsight Corporation, Cary, N.C.). The maximum serum concentration (Cmax) and the time of occurrence for maximum concentration (Tmax) were obtained by visual inspection of the serum concentration-time curve after drug administration. The total area under the serum concentration-time curve from time zero to the last measurable time point ([…]) was calculated using the linear and logarithmic trapezoidal method for ascending and descending serum concentrations, respectively.

Data set [5] is described as follows: Pancreas tissue pharmacokinetics after single intragastric dose. Format: in vivo, mice. The procedure:
as §1, §2, §3, §4

Data set [6] has as its system COX-2, E-cadherin, PTEN, pAkt, tropomyosin expression. Put plainly: Western blot of COX-2, E-cadherin, PTEN, pAkt, tropomyosin. It is filed as cell-based, human. Particulars: BxPC-3 cell line only, 72 h. Background: A western blot detects proteins with antibodies after separation by electrophoresis.
Data set [7] deals with PGE2. Nature of the data set: PGE2 immunoassay, three PC lines. Format: cell-based, human. Particulars: 24 h serum-free; CDF or CUR 1-4 μMol/L, GEM 10 nMol/L.
The test system of data set [8] is AsPC-1 and MIAPaCa-2 cells. Put plainly: Clonogenic assay, parental lines. It is filed as cell-based, human. To be noted: 4 μmol/L CUR or CDF, 20 nmol/L GEM.
Data set [9] relates to AsPC-1, AsPC1-GTR, MIAPaCa-2, and MIAPaCa-2-GTR cell lines. Put plainly: BD BioCoat tumor invasion assay. Format: cell-based, human. Particulars: 4 μmol/L. As for the experimental part: The invasive activity of the drug resistant cell lines was tested by using a BD BioCoat Tumor Invasion Assay System (BD Biosciences, Bedford, Mass.) according to the manufacturer's protocol. […] The fluorescence was read using a TECAN Microplate Reader at 530/590 nm and photographed.

Setting [10] is: female, ICR-SCID, mouse, po, serum, 250 mg/kg single intragastric.
[11] abbreviates: serum, 250 mg/kg single intragastric.
Where [12] appears, read: serum, as printed in text 'at 1 h'.
[13] abbreviates: female, ICR-SCID, mouse, po, pancreas, 250 mg/kg single intragastric.
Where [14] appears, read: pancreas, 250 mg/kg single intragastric.

Each structure is given as a SMILES string. Read-outs that look alike come from different tables or passages of the source.

Usually AUC(0-t) stands for the area under the concentration-time curve up to a stated or last time point. High values mean more exposure, low ones less exposure. By Cmax is commonly meant the maximum level reached in the sampled fluid or tissue. For orientation: Tmax means the time at which the peak concentration occurs. `COc1cc(/C=C/C(=O)C(=Cc2ccc(F)c(F)c2)C(=O)/C=C/c2ccc(O)c(OC)c2)ccc1O` [CDF, (1E,6E)-1,7-bis(4-hydroxy-3-methoxyphenyl)hepta-1,6-diene{4(3,4 difluorobenzaldehyde)}-3,5-dione]: at cellular 26S proteasome, the inhibition at 10 µM was determined as 34%, the inhibition at 20 µM was determined as 51% and the inhibition at 30 µM came to 61%. The inhibition at 10 µM in data set [1] (HCT-116, 10 μM, 24 h) was found to be 24%. Besides, the inhibition at 20 µM in data set [1] (HCT-116, 20 μM, 24 h) turned out to be 39%. For the same compound, in data set [1] (HCT-116, 30 μM, 24 h), the inhibition at 30 µM was found to be 68%. For the same compound, in data set [2], the “induction of apoptotic cell death” value is recorded as “superior to CUR”. In addition, the “PGE2 level in conditioned medium” value in the data set with PGE2 [3] (BxPC-3 cells, 1 μM) is given as “significant decrease in PGE2 level”. In the data set on PGE2 [3] (MIAPaCa-2 cells, 4 μM), the “PGE2 level in conditioned medium” value was “significant decrease in PGE2 levels”. Besides, in data set [4] (setting [10]), the AUC(0-t) was determined as 1220 ng·h/mL, the Cmax is 210 ng/mL and the Tmax is 8 h. The “increase in systemic drug level over Curcumin” value in data set [4] (serum AUClast, oral 250 mg/kg) came out at 2.7 fold. Further, in [4] (setting [11]), the Clast amounted to 40 ng/mL and the Tlast is reported as 16.0 h. Further, the AUClast in [4] (setting [12]) was found to be 1220 ng·h/mL. Further, in data set [5] (250 mg/kg), the “AUClast in pancreas tissue relative to CUR” value is recorded as 10.6 times and the “Cmax in pancreas tissue relative to CUR” value came to 4.3 times. In [5] (female, ICR-SCID, mouse, pancreas / serum, oral, 250 mg/kg, at 8 h, read-out: Cmax in pancreas relative to serum), the Kp at 8 h was 44.5. Besides, in [5] (setting [13]), the Cmax stood at 9350 ng/g and the Tmax worked out at 8 h. In data set [5] (setting [14]), the AUClast came out at 36.56 µg·h/g, the Clast came out at 0.04 µg/g and the Tlast worked out at 12.0 h. Also, the E-cadherin expression result in [6] is on record as “significantly enhanced”. In the data set with PGE2 [7], the PGE2 secretion level entry is reported as “significant reduction in PGE2 level”. Besides, the clonogenicity entry in data set [8] is “significant reduction in clonogenicity”. In data set [9], the inhibition of invasion result was “significant inhibition of invasion”.

In the case of `COc1cc(/C=C/C(=O)CC(=O)/C=C/c2ccc(O)c(OC)c2)ccc1O` [CUR, (1E,6E)-1,7-bis(4-hydroxy-3-methoxyphenyl)hepta-1,6-diene-3,5-dione, reference compound], the inhibition at 10 µM against cellular 26S proteasome was 27%; in [1] (HCT-116, 24 h), 24%. In addition, the inhibition at 20 µM against cellular 26S proteasome came to 47%; in [1] (HCT-116, 24 h) it was 53%. Also, the inhibition at 30 µM against cellular 26S proteasome amounted to 64%; in data set [1] (HCT-116, 24 h), 49%. The “induction of apoptotic cell death” value in data set [2] is recorded as “induce apoptosis”. In addition, in the data set with PGE2 [3] (MIAPaCa-2 cells, 4 μM), the “PGE2 level in conditioned medium” value is on record as “significant decrease in PGE2 levels”. Further, the AUClast in data set [4] (setting [11]) was 440 ng·h/mL; in data set [4] (setting [12]), 0.44 µg/mL; in data set [5] (setting [14]) it was 3.46 µg·h/g. Also, the results for the Clast in [4] (setting [11]) and in data set [5] (setting [14]) were 30 ng/mL and 0.20 µg/g, respectively. Also, the Tlast in data set [4] (serum, 250 mg/kg single intragastric, 250 mg/kg) is reported as 8 h; in data set [4] (serum, 250 mg/kg single intragastric, listed as Curcumin, 250 mg/kg), 8.0 h; in data set [5] (setting [14]) it was 16.0 h. In addition, in data set [6], the E-cadherin expression result is given as “significantly enhanced”. The PGE2 secretion level result with PGE2 [7] is listed as “significant reduction in PGE2 level”. In data set [8], the clonogenicity result is “significant reduction in clonogenicity”. In addition, the inhibition of invasion entry in data set [9] is on record as “minimal inhibition on invasion”.
